Measurements as given in patent publication US9340590B2 (priority 2011, dated 2016).
Positions of bridges follow the written chain, without caps; N, C: chain ends. Non-standard residues stand in square brackets, D forms with d. Residues, ends and D or L forms follow the SMILES beside them. Pra = C#CC[C@H](N)C(=O)O; Abu = CC[C@H](N)C(=O)O

Experiments:
Assay in all cases: cell-based
[1] = target: hNav1.7 (Homo sapiens, UniProt Q15858); format: cell-based; conditions: for IC50: IonWorks Quattro, use-dependent block, hNav1.7, read-out: IWQ Use Nav1.7
[2] = target: hNav1.5 (Homo sapiens, UniProt Q14524); conditions: IonWorks Quattro, use-dependent block, hNav1.5; read-out: IWQ Use Nav1.5
[3] = target: hNav1.4 (Homo sapiens, UniProt P35499); conditions: IonWorks Quattro, use-dependent block, hNav1.4; read-out: IWQ Use Nav1.4
[4] = target: hNav1.3 (Homo sapiens, UniProt Q9NY46); conditions: IonWorks Quattro, use-dependent block, hNav1.3; read-out: IWQ Use Nav1.3
Sequence of hNav1.3 (Q9NY46 whole entry, looked up): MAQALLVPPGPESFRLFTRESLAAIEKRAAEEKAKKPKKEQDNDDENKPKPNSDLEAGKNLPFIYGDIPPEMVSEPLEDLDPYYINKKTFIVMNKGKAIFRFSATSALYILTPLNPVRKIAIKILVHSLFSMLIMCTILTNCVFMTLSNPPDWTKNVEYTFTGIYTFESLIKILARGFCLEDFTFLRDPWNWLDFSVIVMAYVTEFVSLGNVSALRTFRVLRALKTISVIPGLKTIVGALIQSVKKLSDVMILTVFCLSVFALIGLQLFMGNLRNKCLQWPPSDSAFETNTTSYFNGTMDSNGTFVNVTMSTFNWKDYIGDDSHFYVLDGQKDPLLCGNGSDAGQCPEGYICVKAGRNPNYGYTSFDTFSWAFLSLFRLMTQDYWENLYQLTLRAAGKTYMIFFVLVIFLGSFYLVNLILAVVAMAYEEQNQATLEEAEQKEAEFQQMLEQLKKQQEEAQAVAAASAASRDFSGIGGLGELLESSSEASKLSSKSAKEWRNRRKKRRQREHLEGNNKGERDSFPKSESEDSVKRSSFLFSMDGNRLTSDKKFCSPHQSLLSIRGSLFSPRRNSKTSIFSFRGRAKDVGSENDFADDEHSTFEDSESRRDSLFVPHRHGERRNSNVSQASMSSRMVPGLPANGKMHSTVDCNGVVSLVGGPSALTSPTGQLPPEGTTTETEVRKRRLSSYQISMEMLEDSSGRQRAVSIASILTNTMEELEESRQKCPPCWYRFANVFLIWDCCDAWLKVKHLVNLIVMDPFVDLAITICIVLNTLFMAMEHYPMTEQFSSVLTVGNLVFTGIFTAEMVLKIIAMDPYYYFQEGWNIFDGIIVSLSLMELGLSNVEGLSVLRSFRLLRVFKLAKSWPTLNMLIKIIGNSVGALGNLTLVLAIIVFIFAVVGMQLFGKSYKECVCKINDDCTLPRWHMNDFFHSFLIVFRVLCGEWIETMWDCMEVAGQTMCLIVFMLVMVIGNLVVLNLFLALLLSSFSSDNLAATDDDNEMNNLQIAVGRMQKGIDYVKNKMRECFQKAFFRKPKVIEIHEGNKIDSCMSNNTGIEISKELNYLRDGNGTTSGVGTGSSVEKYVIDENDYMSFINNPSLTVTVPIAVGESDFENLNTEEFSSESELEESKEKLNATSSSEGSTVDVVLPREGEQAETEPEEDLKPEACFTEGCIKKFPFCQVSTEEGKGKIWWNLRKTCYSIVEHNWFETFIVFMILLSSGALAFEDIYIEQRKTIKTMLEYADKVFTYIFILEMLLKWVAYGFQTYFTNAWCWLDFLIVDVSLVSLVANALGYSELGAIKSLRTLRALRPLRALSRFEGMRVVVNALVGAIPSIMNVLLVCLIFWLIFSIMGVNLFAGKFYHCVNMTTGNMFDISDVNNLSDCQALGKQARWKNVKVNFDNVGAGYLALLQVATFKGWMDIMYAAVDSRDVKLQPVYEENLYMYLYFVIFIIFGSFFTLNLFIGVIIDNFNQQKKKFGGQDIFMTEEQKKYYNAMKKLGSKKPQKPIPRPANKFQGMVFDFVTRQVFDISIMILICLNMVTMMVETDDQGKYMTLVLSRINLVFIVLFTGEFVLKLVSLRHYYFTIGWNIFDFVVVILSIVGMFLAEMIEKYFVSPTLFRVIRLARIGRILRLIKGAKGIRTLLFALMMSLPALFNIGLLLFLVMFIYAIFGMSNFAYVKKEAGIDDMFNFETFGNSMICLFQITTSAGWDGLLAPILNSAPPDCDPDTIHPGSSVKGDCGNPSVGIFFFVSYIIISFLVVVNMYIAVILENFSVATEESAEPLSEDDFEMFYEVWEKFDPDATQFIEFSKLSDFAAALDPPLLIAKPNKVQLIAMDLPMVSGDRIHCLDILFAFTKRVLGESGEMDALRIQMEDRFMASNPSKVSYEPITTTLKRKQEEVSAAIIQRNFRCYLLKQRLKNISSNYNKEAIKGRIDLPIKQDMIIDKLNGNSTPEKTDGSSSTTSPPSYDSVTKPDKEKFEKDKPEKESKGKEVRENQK

Sequence of hNav1.7 (Q15858 whole entry, looked up): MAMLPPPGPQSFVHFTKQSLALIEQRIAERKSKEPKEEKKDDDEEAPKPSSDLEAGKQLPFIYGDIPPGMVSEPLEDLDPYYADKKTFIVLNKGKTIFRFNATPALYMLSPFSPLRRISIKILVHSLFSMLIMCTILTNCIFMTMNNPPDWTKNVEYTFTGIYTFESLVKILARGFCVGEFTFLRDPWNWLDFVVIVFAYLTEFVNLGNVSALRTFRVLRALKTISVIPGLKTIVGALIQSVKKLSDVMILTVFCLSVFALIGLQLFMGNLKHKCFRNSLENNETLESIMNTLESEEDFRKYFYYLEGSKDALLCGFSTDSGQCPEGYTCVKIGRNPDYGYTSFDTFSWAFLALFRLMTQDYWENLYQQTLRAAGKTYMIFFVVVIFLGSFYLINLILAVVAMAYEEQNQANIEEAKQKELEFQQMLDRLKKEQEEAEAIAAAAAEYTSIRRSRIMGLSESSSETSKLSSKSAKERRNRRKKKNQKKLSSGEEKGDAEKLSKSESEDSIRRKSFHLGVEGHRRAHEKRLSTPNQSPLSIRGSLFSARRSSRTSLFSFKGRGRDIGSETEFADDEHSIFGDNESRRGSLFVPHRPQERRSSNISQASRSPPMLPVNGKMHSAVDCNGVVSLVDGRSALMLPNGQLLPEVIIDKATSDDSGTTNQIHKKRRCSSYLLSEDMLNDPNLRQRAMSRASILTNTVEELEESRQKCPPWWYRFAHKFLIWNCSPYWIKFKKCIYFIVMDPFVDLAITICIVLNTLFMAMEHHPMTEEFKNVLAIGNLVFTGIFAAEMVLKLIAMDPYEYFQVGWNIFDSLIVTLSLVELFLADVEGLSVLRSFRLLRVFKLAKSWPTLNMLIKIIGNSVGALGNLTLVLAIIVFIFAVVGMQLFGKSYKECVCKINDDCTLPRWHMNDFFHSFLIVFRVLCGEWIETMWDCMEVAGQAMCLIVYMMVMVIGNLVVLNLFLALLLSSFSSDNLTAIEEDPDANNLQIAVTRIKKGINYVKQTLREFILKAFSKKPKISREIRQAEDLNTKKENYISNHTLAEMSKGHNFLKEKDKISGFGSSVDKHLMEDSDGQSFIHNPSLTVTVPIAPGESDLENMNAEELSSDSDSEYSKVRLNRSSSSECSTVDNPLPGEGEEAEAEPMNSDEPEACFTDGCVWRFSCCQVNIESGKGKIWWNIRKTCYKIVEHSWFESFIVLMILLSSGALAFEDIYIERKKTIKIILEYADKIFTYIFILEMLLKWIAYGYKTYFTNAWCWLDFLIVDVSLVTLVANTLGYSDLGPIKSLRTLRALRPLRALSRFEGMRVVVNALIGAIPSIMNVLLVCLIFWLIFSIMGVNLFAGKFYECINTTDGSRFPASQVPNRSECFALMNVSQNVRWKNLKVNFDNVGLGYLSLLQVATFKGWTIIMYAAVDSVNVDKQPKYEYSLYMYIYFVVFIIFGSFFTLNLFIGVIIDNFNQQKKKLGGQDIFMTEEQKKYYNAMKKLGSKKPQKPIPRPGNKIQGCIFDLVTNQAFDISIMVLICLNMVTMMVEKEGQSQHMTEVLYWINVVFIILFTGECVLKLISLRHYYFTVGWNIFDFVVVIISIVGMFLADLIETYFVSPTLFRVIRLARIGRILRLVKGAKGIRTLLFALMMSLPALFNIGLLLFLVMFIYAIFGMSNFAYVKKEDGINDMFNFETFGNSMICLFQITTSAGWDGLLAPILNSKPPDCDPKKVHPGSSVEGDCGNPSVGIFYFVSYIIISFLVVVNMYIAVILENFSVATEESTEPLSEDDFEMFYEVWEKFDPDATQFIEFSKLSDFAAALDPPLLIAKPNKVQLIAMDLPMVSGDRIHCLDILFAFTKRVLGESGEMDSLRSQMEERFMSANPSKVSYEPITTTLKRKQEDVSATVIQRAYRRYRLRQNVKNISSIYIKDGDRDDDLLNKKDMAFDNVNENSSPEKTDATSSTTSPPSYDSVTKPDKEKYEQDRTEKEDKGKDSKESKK

Row | SMILES | IC50 [1] [µM] | IC50 [2] [µM] | IC50 [3] [µM] | IC50 [4] [µM] | Nav1.7/Nav1.3 ([1]; ratio of IWQ Use values Nav1.7 to Nav1.3)
1 | CC[C@H](NC(=O)CNC(=O)[C@H](CC(C)C)NC(=O)[C@H](CC)NC(=O)[C@@H](N)CC(=O)O)C(=O)N[C@@H](CC(C)C)C(=O)N[C@@H](CCCNC(=N)N)C(=O)N[C@@H](CCCCN)C(=O)N[C@H]1CSSC[C@@H]2NC(=O)[C@H](C(C)C)NC(=O)[C@H](CC(C)C)NC(=O)[C@H](CC(N)=O)NC(=O)[C@@H]3CCCN3C(=O)[C@H](CCCNC(=N)N)NC(=O)[C@H](CC)NC(=O)[C@H](CSSC[C@@H](C(=O)N[C@@H](CCCCN)C(=O)N[C@@H](Cc3ccc(O)cc3)C(=O)N[C@H](C(=O)N[C@@H](Cc3ccccc3)C(N)=O)C(C)C)NC(=O)[C@H](Cc3c[nH]c4ccccc34)NC(=O)[C@H](CCC(=O)O)NC(=O)[C@H](Cc3c[nH]cn3)NC(=O)[C@H]([C@@H](C)O)NC(=O)[C@H](CCCNC(=N)N)NC(=O)[C@H](CO)NC2=O)NC(=O)[C@H](CCCCN)NC(=O)[C@H](CC(=O)O)NC(=O)[C@H](CC(N)=O)NC(=O)[C@H](CC(=O)O)NC(=O)[C@@H]2CCCN2C(=O)[C@H]([C@@H](C)CC)NC1=O [compound 718] (H-D[Abu]LG[Abu]LRKCIPDNDKC[Abu]RPNLVCSRTHEWCKYVF-NH2; disulfide 9-23, 16-30) | 4.3 | > 50 | > 50 | > 5 | 
2 | CC[C@@H]1NC(=O)[C@@H]2CSSC[C@@H](C(=O)N[C@@H](CCCCN)C(=O)N[C@@H](Cc3ccc(O)cc3)C(=O)N[C@H](C(=O)N[C@@H](Cc3ccccc3)C(N)=O)C(C)C)NC(=O)[C@H](Cc3c[nH]c4ccccc34)NC(=O)[C@H](CCC(=O)O)NC(=O)[C@H](Cc3c[nH]cn3)NC(=O)[C@H]([C@@H](C)O)NC(=O)[C@H](CCCNC(=N)N)NC(=O)[C@H](CO)NC(=O)[C@H](CSSC[C@H](NC(=O)[C@H](CCCCN)NC(=O)[C@H](CCCNC(=N)N)NC(=O)[C@H](CC(C)C)NC(=O)[C@H](C)NC(=O)CNC(=O)[C@H](CC(C)C)NC(=O)[C@H](CC)NC(=O)[C@@H](N)CC(=O)O)C(=O)N[C@@H]([C@@H](C)CC)C(=O)N3CCC[C@H]3C(=O)N[C@@H](CC(=O)O)C(=O)N[C@@H](CC(N)=O)C(=O)N[C@@H](CC(=O)O)C(=O)N[C@@H](CCCCN)C(=O)N2)NC(=O)[C@H](C(C)C)NC(=O)[C@H](CC(C)C)NC(=O)[C@H](CC(N)=O)NC(=O)[C@@H]2CCCN2C(=O)[C@H](CCCNC(=N)N)NC1=O [compound 719] (H-D[Abu]LGALRKCIPDNDKC[Abu]RPNLVCSRTHEWCKYVF-NH2; disulfide 9-23, 16-30) | 4.3 | > 50 | > 50 | > 5 | 
3 | CC[C@@H]1NC(=O)[C@@H]2CSSC[C@@H](C(=O)N[C@@H](CCCCN)C(=O)N[C@@H](Cc3ccc(O)cc3)C(=O)N[C@H](C(=O)N[C@@H](Cc3ccccc3)C(N)=O)C(C)C)NC(=O)[C@H](Cc3c[nH]c4ccccc34)NC(=O)[C@H](CCC(=O)O)NC(=O)[C@H](Cc3c[nH]cn3)NC(=O)[C@H]([C@@H](C)O)NC(=O)[C@H](CCCNC(=N)N)NC(=O)[C@H](CO)NC(=O)[C@H](CSSC[C@H](NC(=O)[C@H](CCCCN)NC(=O)[C@H](CCCNC(=N)N)NC(=O)[C@H](CC(C)C)NC(=O)[C@@H](NC(=O)CNC(=O)[C@H](CC(C)C)NC(=O)[C@H](CC)NC(=O)[C@@H](N)CC(=O)O)C(C)C)C(=O)N[C@@H]([C@@H](C)CC)C(=O)N3CCC[C@H]3C(=O)N[C@@H](CC(=O)O)C(=O)N[C@@H](CC(N)=O)C(=O)N[C@@H](CC(=O)O)C(=O)N[C@@H](CCCCN)C(=O)N2)NC(=O)[C@H](C(C)C)NC(=O)[C@H](CC(C)C)NC(=O)[C@H](CC(N)=O)NC(=O)[C@@H]2CCCN2C(=O)[C@H](CCCNC(=N)N)NC1=O [compound 720] (H-D[Abu]LGVLRKCIPDNDKC[Abu]RPNLVCSRTHEWCKYVF-NH2; disulfide 9-23, 16-30) | > 5 | 33 | > 50 | > 5 | 
4 | C#CC[C@@H]1NC(=O)[C@H](CC(=O)O)NC(=O)[C@@H]2CCCN2C(=O)[C@H](CCC(=O)O)NC(=O)[C@@H]2CSSC[C@@H]3NC(=O)[C@H](C(C)C)NC(=O)[C@H](CC(C)C)NC(=O)[C@H](CC(N)=O)NC(=O)[C@@H]4CCCN4C(=O)[C@H](CCCNC(=N)N)NC(=O)[C@H](CSSC[C@H](NC(=O)[C@@H](N)CC(=O)O)C(=O)N[C@@H](CC(C)C)C(=O)NCC(=O)N[C@@H](C)C(=O)N[C@@H](CC(C)C)C(=O)N[C@@H](CCCNC(=N)N)C(=O)N[C@@H](CCCCN)C(=O)N2)NC(=O)[C@H](CSSC[C@@H](C(=O)N[C@@H](CCCCN)C(=O)N[C@@H](Cc2ccc(O)cc2)C(=O)N[C@H](C(=O)N[C@@H](Cc2ccccc2)C(N)=O)C(C)C)NC(=O)[C@H](Cc2c[nH]c4ccccc24)NC(=O)[C@H](CCCNC(=N)N)NC(=O)[C@H](Cc2c[nH]cn2)NC(=O)[C@H](CC(C)C)NC(=O)[C@H](CCCNC(=N)N)NC(=O)[C@H](CO)NC3=O)NC(=O)[C@H](CCCCN)NC(=O)[C@H](CC(=O)O)NC1=O [compound 800] (H-DCLGALRKCEPD[Pra]DKCCRPNLVCSRLHRWCKYVF-NH2; disulfide 2-17, 9-23, 16-30) | 0.7 | > 50 | > 50 | 1.4 | 0.5
5 | CC[C@H](C)[C@@H]1NC(=O)[C@@H]2CSSC[C@@H]3NC(=O)[C@H](C(C)C)NC(=O)[C@H](CC(C)C)NC(=O)[C@H](CC(N)=O)NC(=O)[C@@H]4CCCN4C(=O)[C@H](CCCNC(=N)N)NC(=O)[C@H](CSSC[C@H](NC(=O)[C@H](CC(=O)O)NC(=O)[C@H](CO)NC(=O)CN)C(=O)N[C@@H](CC(C)C)C(=O)NCC(=O)N[C@@H](C)C(=O)N[C@@H](CC(C)C)C(=O)N[C@@H](CCCNC(=N)N)C(=O)N[C@@H](CCCCN)C(=O)N2)NC(=O)[C@H](CSSC[C@@H](C(=O)N[C@@H](CCCCN)C(=O)N[C@@H](Cc2ccc(O)cc2)C(=O)N[C@H](C(=O)N[C@@H](Cc2ccccc2)C(=O)N[C@@H](Cc2c[nH]c4ccccc24)C(=O)O)C(C)C)NC(=O)[C@H](Cc2c[nH]c4ccccc24)NC(=O)[C@H](CCCNC(=N)N)NC(=O)[C@H](Cc2c[nH]cn2)NC(=O)[C@H]([C@@H](C)O)NC(=O)[C@H](CCCNC(=N)N)NC(=O)[C@H](CO)NC3=O)NC(=O)[C@H](CCCCN)NC(=O)[C@H](CC(=O)O)NC(=O)[C@H](CC(N)=O)NC(=O)[C@H](CC(=O)O)NC(=O)[C@@H]2CCCN2C1=O [compound 816] (H-GSDCLGALRKCIPDNDKCCRPNLVCSRTHRWCKYVFW-OH; disulfide 4-19, 11-25, 18-32) | > 5 | > 5 | > 5 | > 5 | 
